Laboratory results: ChEMBL document CHEMBL2177072, “Design and synthesis of β-site amyloid precursor protein cleaving enzyme (BACE1) inhibitors with in vivo brain reduction of β-amyloid peptides” (J Med Chem, 2012)
Active and inactive are the calls of the source. The calls are words filed in the database; no cut-off is given here.

Columns and labels:
Beta-secretase 2 = target: T1, Beta-secretase 2 (Homo sapiens, UniProt Q9Y5Z0)
T1 sequence (Q9Y5Z0 whole entry): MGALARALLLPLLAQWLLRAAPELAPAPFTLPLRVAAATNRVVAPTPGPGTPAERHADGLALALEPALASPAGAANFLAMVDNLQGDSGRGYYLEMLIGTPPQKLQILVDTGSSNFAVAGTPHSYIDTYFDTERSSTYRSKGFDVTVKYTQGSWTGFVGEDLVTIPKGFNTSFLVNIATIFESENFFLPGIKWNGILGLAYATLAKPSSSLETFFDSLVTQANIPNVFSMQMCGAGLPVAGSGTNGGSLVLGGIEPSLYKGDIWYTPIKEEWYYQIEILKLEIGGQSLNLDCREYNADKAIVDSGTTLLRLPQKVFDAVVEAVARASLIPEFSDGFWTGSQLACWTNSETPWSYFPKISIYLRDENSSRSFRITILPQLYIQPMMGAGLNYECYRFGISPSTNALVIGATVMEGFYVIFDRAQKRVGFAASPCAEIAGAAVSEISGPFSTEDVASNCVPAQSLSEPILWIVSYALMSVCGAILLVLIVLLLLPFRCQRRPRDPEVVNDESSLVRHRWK

Beta-secretase 1 [1] = target: T2, Beta-secretase 1 (Homo sapiens, UniProt P56817)
T2 sequence (P56817 whole entry): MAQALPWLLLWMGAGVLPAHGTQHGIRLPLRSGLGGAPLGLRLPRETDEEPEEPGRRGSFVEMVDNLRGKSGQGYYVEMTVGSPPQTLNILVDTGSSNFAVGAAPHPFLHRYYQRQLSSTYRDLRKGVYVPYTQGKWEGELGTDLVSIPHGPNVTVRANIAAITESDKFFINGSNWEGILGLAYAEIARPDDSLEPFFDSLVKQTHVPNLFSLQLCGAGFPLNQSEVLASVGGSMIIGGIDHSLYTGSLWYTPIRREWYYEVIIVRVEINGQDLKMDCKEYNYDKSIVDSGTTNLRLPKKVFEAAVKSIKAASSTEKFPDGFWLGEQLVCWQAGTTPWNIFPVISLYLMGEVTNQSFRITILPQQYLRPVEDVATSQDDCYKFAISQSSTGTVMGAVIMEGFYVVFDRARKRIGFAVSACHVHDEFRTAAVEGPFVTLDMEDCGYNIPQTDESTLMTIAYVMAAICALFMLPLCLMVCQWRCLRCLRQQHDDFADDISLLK

Beta-secretase 1 [2] = target: Beta-secretase 1 (Mus musculus, UniProt P56818)
Beta-secretase 1 (Mus musculus, UniProt P56818), sequence (P56818 whole entry): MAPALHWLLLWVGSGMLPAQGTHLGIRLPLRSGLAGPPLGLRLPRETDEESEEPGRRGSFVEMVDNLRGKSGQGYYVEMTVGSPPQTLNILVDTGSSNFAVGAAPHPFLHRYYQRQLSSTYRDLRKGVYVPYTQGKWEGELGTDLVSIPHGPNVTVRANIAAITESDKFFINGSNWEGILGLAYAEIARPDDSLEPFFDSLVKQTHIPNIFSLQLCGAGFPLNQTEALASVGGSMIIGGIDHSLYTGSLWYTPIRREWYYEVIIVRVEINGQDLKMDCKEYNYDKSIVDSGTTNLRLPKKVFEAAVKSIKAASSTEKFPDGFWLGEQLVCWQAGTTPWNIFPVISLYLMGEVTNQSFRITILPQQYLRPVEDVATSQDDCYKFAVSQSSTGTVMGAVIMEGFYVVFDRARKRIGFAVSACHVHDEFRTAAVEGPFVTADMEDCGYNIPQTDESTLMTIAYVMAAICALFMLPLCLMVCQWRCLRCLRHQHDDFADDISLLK
Description: Inhibition of BACE1-mediated amyloid beta 40 release in C57/BL6 mouse primary cortical neurons after overnight incubation by ELISA

Beta-secretase 1 [3] = target: T2, Beta-secretase 1; format: cell-based, SH-SY5Y
in vitro [4] = details: rat, hepatocytes
physchem [5] = experiment: physchem
in vitro [6] = details: human, Caco-2
Description: Apparent permeability from apical to basal side of human Caco2 cells at 10 uM after 60 mins by LC/MS analysis

[7] = target: Voltage-gated inwardly rectifying potassium channel KCNH2 (Homo sapiens, UniProt Q12809)
Voltage-gated inwardly rectifying potassium channel KCNH2, sequence (Q12809 whole entry): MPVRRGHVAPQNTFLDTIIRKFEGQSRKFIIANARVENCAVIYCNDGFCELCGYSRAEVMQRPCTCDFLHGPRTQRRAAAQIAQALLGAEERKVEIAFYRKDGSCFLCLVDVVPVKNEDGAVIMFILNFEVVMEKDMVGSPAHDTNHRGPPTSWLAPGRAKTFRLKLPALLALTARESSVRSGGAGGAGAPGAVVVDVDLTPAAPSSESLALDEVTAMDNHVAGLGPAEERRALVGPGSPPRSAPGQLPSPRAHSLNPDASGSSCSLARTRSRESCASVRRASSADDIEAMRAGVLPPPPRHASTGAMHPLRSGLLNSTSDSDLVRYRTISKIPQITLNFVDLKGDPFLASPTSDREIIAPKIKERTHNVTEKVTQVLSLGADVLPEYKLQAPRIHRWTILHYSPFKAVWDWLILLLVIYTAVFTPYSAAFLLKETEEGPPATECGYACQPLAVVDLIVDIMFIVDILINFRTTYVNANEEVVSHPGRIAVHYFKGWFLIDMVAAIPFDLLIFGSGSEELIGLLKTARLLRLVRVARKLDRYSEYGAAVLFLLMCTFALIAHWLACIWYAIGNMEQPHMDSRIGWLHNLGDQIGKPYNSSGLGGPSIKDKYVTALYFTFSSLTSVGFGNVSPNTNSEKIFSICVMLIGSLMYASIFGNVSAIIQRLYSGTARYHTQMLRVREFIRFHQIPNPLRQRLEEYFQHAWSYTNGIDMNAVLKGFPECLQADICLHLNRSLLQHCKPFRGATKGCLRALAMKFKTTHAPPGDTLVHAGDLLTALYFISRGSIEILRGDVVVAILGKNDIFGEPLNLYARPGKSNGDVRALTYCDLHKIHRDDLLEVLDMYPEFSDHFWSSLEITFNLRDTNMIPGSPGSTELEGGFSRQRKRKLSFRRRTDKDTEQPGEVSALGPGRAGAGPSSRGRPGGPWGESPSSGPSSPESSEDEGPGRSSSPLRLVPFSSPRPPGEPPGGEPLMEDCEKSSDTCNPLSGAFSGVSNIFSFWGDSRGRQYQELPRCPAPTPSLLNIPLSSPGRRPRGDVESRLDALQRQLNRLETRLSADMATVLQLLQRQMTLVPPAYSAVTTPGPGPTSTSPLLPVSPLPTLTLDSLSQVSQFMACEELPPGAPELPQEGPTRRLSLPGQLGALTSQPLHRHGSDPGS
Description: Inhibition of human ERG expressed in CHO cells by IonWorks assay

in vitro [8] = details: human, Caco-2; remark: listed apart in the source
Description: Efflux ratio of apparent permeability from basal to apical to apical to basal side of human Caco2 cells at 10 uM after 60 mins by LC/MS analysis

physchem [9] = experiment: physchem; remark: listed apart in the source
Description: Lipophilicity, log D of the compound by RP-HPLC analysis

[10] = Fraction unbound in C57BL/6 mouse brain at 300 umol/kg, po; format: ADME, organism-based
[11] = Fraction unbound in C57BL/6 mouse plasma at 300 umol/kg, po; format: ADME, organism-based
Mus musculus [12] = experiment: Antialzheimer activity in C57BL/6 mouse assessed as reduction in amyloid beta 40 level in brain at 300 umol/kg, po at […] by ELISA relative to control; format: functional; parameters: scale not given: the % may be the effect or the level left
Brain [13] = experiment: Free drug concentration in C57BL/6 mouse brain at 300 umol/kg, po at […]; format: ADME, organism-based; details: in vivo
Mus musculus [14] = species: Mus musculus; experiment: Antialzheimer activity in C57BL/6 mouse assessed as unbound brain concentration required for 20% reduction in amyloid beta 40 level in brain at 1.5 by ELISA; format: functional
Mus musculus [15] = experiment: Antialzheimer activity in C57BL/6 mouse assessed as reduction in amyloid beta 42 level in brain at 300 umol/kg, po; format: functional, organism-based
Mus musculus [16] = experiment: Antialzheimer activity in C57BL/6 mouse assessed as reduction in sAPPbeta level in brain at 300 umol/kg, po; format: functional, organism-based
Plasma [17] = experiment: Free drug concentration in C57BL/6 mouse plasma at 300 umol/kg, po at […]; format: ADME, organism-based; details: in vivo
[18] = Fraction unbound in C57BL/6 mouse plasma at 80 umol/kg, po; format: ADME, organism-based
Mus musculus [19] = experiment: Antialzheimer activity in C57BL/6 mouse assessed as reduction in sAPPbeta level in brain at 80 umol/kg, po; format: functional, organism-based
in vivo [20] = details: mouse, po
Description: Half life in po dosed mouse

Plasma [21] = experiment: Free drug concentration in C57BL/6 mouse plasma at 80 umol/kg, po at […]; format: ADME, organism-based; details: in vivo
Brain [22] = experiment: Free drug concentration in C57BL/6 mouse brain at 80 umol/kg, po at […]; format: ADME, organism-based; details: in vivo
[23] = Fraction unbound in C57BL/6 mouse brain at 80 umol/kg, po; format: ADME, organism-based
Mus musculus [24] = experiment: Antialzheimer activity in C57BL/6 mouse assessed as reduction in amyloid beta 40 level in brain at 80 umol/kg, po at […] by ELISA relative to control; format: functional; parameters: scale not given: the % may be the effect or the level left
[25] = Ratio of free drug concentration in brain to free drug concentration in plasma in C57BL/6 mouse at 80 umol/kg, po at […]; format: ADME, organism-based
in vivo [26] = details: mouse, po; remark: listed apart in the source
Description: Oral bioavailability in mouse

Mus musculus [27] = experiment: Antialzheimer activity in C57BL/6 mouse assessed as reduction in amyloid beta 42 level in brain at 80 umol/kg, po; format: functional, organism-based

## NC1=N[C@@](c2cccc(-c3cncnc3)c2)(c2ccnc(C(F)F)c2)c2cc(F)cc(F)c21
Beta-secretase 2
  Ki: 770 nM
Beta-secretase 1 [1]
  IC50: 36.2 nM
Beta-secretase 1 [2]
  IC50: 53 nM
Beta-secretase 1 [3]
  IC50: 8.64 nM

## CCn1cc([C@]2(c3cccc(NC(=O)c4ccc(Cl)cn4)c3)N=C(N)c3c(F)cccc32)cc(C)c1=O
Beta-secretase 1 [1]
  IC50: 2.49 nM
Beta-secretase 1 [3]
  IC50: 0.15 nM

## NC1=NC(c2ccncc2)(c2cccc(-c3cncnc3)c2)c2ccccc21 (stereo not given)
In vitro [4]
  hepatocyte CLint: 11.7 µL/min/1e6 cells
Beta-secretase 1 [3]
  IC50: 90.3 nM
Physchem [5]
  pKa: 8.4
In vitro [6]
  Papp A→B at 1 h, 10 µM: 3.4 ×10⁻⁶ cm/s
[7]
  IC50: 16000 nM
In vitro [8]
  efflux ratio at 1 h, 10 µM: 12
Physchem [9]
  logD: 0.7

## CCn1cc(C2(c3cccc(-c4cncc(F)c4)c3)N=C(N)c3c(F)cccc32)cc(C)c1=O (stereo not given)
Beta-secretase 1 [3]
  IC50: 3.98 nM

## NC1=N[C@](c2ccnc(C(F)(F)F)c2)(c2ccc(F)c(-c3cncnc3)c2)c2cccc(F)c21
[10]
  fraction unbound: 0.025
[11]
  fraction unbound: 0.044
Mus musculus [12]
  Activity: 50%
Beta-secretase 1 [2]
  IC50: 204 nM
Brain [13]
  Drug uptake(free): 406 nM
Mus musculus [14]
  Activity: 114 nM
In vitro [4]
  hepatocyte CLint: 10 µL/min/1e6 cells
Mus musculus [15]
  Activity: Active
Mus musculus [16]
  Activity: Active
In vitro [6]
  Papp A→B at 1 h, 10 µM: 30 ×10⁻⁶ cm/s
Plasma [17]
  Cp(f): 795 nM
Physchem [9]
  logD: 3

## COc1c(C)cc(C2(c3cccc(-c4cncnc4)c3)N=C(N)c3c(F)cccc32)nc1C (stereo not given)
Beta-secretase 2
  Ki: 1700 nM
Beta-secretase 1 [2]
  IC50: 40 nM
Beta-secretase 1 [3]
  IC50: 2.92 nM

## N#Cc1cncc(-c2cccc(C3(c4ccnc(C(F)(F)F)c4)N=C(N)c4c(F)cccc43)c2)c1 (stereo not given)
Beta-secretase 1 [1]
  IC50: 253 nM
In vitro [4]
  hepatocyte CLint: 5.2 µL/min/1e6 cells
Beta-secretase 1 [3]
  IC50: 29.9 nM
In vitro [6]
  Papp A→B at 1 h, 10 µM: 16 ×10⁻⁶ cm/s
[7]
  IC50: 1700 nM
In vitro [8]
  efflux ratio at 1 h, 10 µM: 0.8
Physchem [9]
  logD: 3.7

## Cc1cc(C2(c3cccc(-c4cncnc4)c3)N=C(N)c3c(F)cccc32)cc(C)n1 (stereo not given)
Beta-secretase 1 [1]
  IC50: 1380 nM
Beta-secretase 1 [3]
  IC50: 10.7 nM

## NC1=N[C@@](c2cccc(-c3cncnc3)c2)(c2ccnc(C(F)F)c2)c2cccc(F)c21 [AZD-3839]
Beta-secretase 2
  Ki: 370 nM
[18]
  fraction unbound: 0.027
Mus musculus [19]
  Activity: Active
In vivo [20]
  half-life: 1.5 h
Beta-secretase 1 [2]
  IC50: 51 nM
Plasma [21]
  Cp(f): 170 nM
In vitro [4]
  hepatocyte CLint: 20.9 µL/min/1e6 cells
Brain [22]
  Drug uptake(free): 119 nM
Physchem [5]
  pKa: 7.1
[23]
  fraction unbound: 0.079
Mus musculus [24]
  Activity: 31%
[25]
  K(p,uu,brain): 0.7
Physchem [9]
  logD: 2
In vivo [26]
  bioavailability: 73%
Mus musculus [27]
  Activity: Active

## Cc1cc(C2(c3cccc(-c4cncnc4)c3)N=C(N)c3c(F)cccc32)cn(C)c1=O (stereo not given)
Beta-secretase 2
  Ki: 740 nM
Beta-secretase 1 [1]
  IC50: 60.8 nM
Beta-secretase 1 [2]
  IC50: 30 nM
Beta-secretase 1 [3]
  IC50: 11.4 nM

## NC1=N[C@](c2ccncc2)(c2cccc(-c3cncnc3)c2)c2cccc(F)c21
Beta-secretase 2
  Ki: 790 nM
Beta-secretase 1 [1]
  IC50: 124 nM
Beta-secretase 1 [2]
  IC50: 68 nM
Beta-secretase 1 [3]
  IC50: 8.25 nM

## CC#Cc1cncc(-c2cccc(C3(c4ccnc(C(F)F)c4)N=C(N)c4c(F)cccc43)c2)c1 (stereo not given)
Beta-secretase 1 [1]
  IC50: 6.49 nM
Beta-secretase 1 [3]
  IC50: 2.97 nM

## COc1cc(C2(c3cccc(-c4cncnc4)c3)N=C(N)c3c(F)cccc32)ccn1 (stereo not given)
Beta-secretase 1 [3]
  IC50: 21.5 nM

## CCn1cc([C@]2(c3cccc(C#CC4CC4)c3)N=C(N)c3c(F)cccc32)cc(C)c1=O
Beta-secretase 2
  Ki: 78 nM
Beta-secretase 1 [1]
  IC50: 6.08 nM
Beta-secretase 1 [2]
  IC50: 3.4 nM
Beta-secretase 1 [3]
  IC50: 0.76 nM

## COc1ccc(C2(c3cccc(-c4cncnc4)c3)N=C(N)c3c(F)cccc32)cc1 (stereo not given)
Beta-secretase 1 [1]
  IC50: 135 nM
Beta-secretase 1 [3]
  IC50: 12.5 nM

## NC1=NC(c2cccc(-c3cncnc3)c2)(c2ccnc(C(F)F)c2)c2cccc(F)c21 (racemic)
In vitro [4]
  hepatocyte CLint: 27.5 µL/min/1e6 cells
Physchem [5]
  pKa: 6.8
Physchem [9]
  logD: 2

## NC1=NC(c2ccncc2)(c2cccc(-c3cncc(F)c3)c2)c2cccc(F)c21 (stereo not given)
Beta-secretase 1 [1]
  IC50: 137 nM
Beta-secretase 1 [3]
  IC50: 25.6 nM

## NC1=NC(c2ccnc(C(F)(F)F)c2)(c2ccc(F)c(-c3cncnc3)c2)c2cccc(F)c21 (racemic)
In vitro [4]
  hepatocyte CLint: 6.9 µL/min/1e6 cells
Physchem [5]
  pKa: 6.4
In vitro [6]
  Papp A→B at 1 h, 10 µM: 25 ×10⁻⁶ cm/s
Physchem [9]
  logD: 3

## NC1=NC(c2cccc(-c3cncnc3)c2)(c2ccnc(C(F)(F)F)c2)c2ccccc21 (stereo not given)
Beta-secretase 1 [1]
  IC50: 134 nM
Beta-secretase 1 [3]
  IC50: 2.1 nM

## CC#Cc1cncc(-c2cccc([C@@]3(c4cc(C)c(=O)n(CC)c4)N=C(N)c4c(F)cc(F)cc43)c2)c1
Beta-secretase 1 [1]
  IC50: 2.59 nM
Beta-secretase 1 [3]
  IC50: 0.38 nM

## COc1c(C)cc(C2(c3cccc(-c4cncnc4)c3)N=C(N)c3c(F)cccc32)cc1C#N (stereo not given)
In vitro [4]
  hepatocyte CLint: 30.9 µL/min/1e6 cells
Beta-secretase 1 [3]
  IC50: 3.4 nM
In vitro [6]
  Papp A→B at 1 h, 10 µM: 23 ×10⁻⁶ cm/s
Physchem [9]
  logD: 3.1

## CCn1cc(C2(c3cccc(-c4cncc(C#N)c4)c3)N=C(N)c3c(F)cccc32)cc(C)c1=O (stereo not given)
Beta-secretase 1 [1]
  IC50: 8.26 nM
Beta-secretase 1 [3]
  IC50: 1.84 nM

## CCn1cc(C2(c3cccc(-c4cncnc4)c3)N=C(N)c3c(F)cccc32)cc(C)c1=O (stereo not given)
Beta-secretase 1 [1]
  IC50: 15.5 nM
Beta-secretase 1 [3]
  IC50: 9.09 nM

## NC1=NC(c2cccc(-c3cncnc3)c2)(c2ccnc(C(F)(F)F)c2)c2cccc(F)c21 (stereo not given)
Beta-secretase 1 [2]
  IC50: 436 nM
Beta-secretase 1 [3]
  IC50: 43.1 nM

## NC1=NC(c2ccncc2)(c2cccc(-c3cncnc3)c2)c2cccc(F)c21 (racemic)
Beta-secretase 1 [1]
  IC50: 158 nM
Beta-secretase 1 [3]
  IC50: 11.4 nM
